The record followed here is patent publication US20250032485A1, “APPLICATION OF IMIDAZO [1,2-A] PYRAZINE COMPOUNDS OR THEIR PHARMACEUTICALLY ACCEPTABLE SALTS IN THE PREPARATION OF ANTI-CORONAVIRUS DRUGS” (GUANGZHOU MEDICAL UNIVERSITY, priority 2023, published 2025).

Each structure is given as a SMILES string. pIC50: −log10 of the molar value.

For test [1], the target named is T1, PLpro of SARS-CoV-2 (Severe acute respiratory syndrome coronavirus 2, UniProt P0DTD1). The test can be described thus: Enzyme activity test in vitro: inhibition of PLpro at fixed concentration 50 μM (RLRGG-AMC substrate). The class given is biochemical. The following applies: compound 50 μM, 10 min preincubation at 37° C., Table 1; read-out: Inhibition rate at 50 μM (%).

Test [2] addresses T1, PLpro of SARS-CoV-2. In words: IC50 determination of inhibition of PLpro activity (RLRGG-AMC substrate). The following applies: 13 concentrations 100 μM to 0.0244 μM, GraphPad Prism. It counts as biochemical.

In the case of `COC(=O)c1cccc(Nc2c(-c3ccc(N4CCOCC4)cc3)nc3cnccn23)c1` [P141, methyl 3-[[2-(4-morpholin-4-ylphenyl)imidazo [1,2-a]pyrazin-3-yl]amino]benzoate], the inhibition (as a rule, the drop in the measured response relative to a control, in per cent) at 50 µM at PLpro of SARS-CoV-2 [1] was determined as 63.8%. Besides, the pIC50 (as a rule, −log10 of the IC50, conventionally taken in molar units) on PLpro of SARS-CoV-2 [2] is 4.42.
In the same order, the values of `CNC(=O)c1cccc(Nc2c(-c3ccc(N(C)C)cc3)nc3cnccn23)c1` [P19443, 3-[[2-[4-(dimethyl-amino)phenyl]imidazo [1,2-a]pyrazin-3-yl]amino]-N-methyl-benzamide] are 53% and 4.51.
